The values below are quoted from earlier work in patent publication US6362007B1, “Methylated, SMD homologous peptides, reactive with the antibodies from sera of living beings affected with systemic lupus erythematosus” (Innogenetics N.V., priority 1997, dated 2002).

The test system of this series is antibodies in SmD positive sera. To be noted: James et al. 1994; synthetic octapeptides of SmD1.

Turning to “amino acid 82-90: additional SmD1 epitope in the region of amino acid 82-90 (James et al. 1994) (DVEPKVKSK; UniProt P62314 82-90, looked up, fragment)”, the “SmD positive sera (precipitin positive) reactive” value is 7 of 9.

Regarding “octapeptides 92-112: SmD1 sequence spanning synthetic octapeptides 92-112 (James et al. 1994) (REAVAGRGRGRGRGRGRGRGR; UniProt P62314 92-112, looked up, fragment)”, the “SmD positive sera (precipitin positive) reactive” value is given as 8 of 9.
